The values below are quoted from earlier work in patent publication EP4088714A1, “OPHTHALMIC PHARMACEUTICAL COMPOSITION COMPRISING ATROPINE” (Warszawskie Zaklady Farmaceutyczne Polfa S.A., priority 2021, dated 2022).

SMILES strings stand for the structures.

`CN1[C@@H]2CC[C@H]1C[C@@H](OC(=O)C(CO)c1ccccc1)C2` (some centres unmarked) [atropine, Atropine]: the “need for photochromatic glasses” value (concentrations 0.01% to 0.05%, treated patients, two years of treatment) was “higher than 30%”. In addition, for the setting “concentrations ranging from 0.01% to 0.05%, 383 children, after two years of treatment”, the tolerability result is “well tolerated”.
